Measured values reported in patent publication US20240156764A1, “INHIBITION OF URACIL DNA GLYCOSYLASE IN THE OPEN CONFORMATION” (CASE WESTERN RESERVE UNIVERSITY, priority 2022, published 2024).
Entries after “also recorded” stand apart in the source; their conditions may differ.

Columns and labels:
human OGG1 protein = target: T1, human OGG1 protein (Homo sapiens, UniProt O15527); experiment: Gel-based DNA cleavage assay with a single oxoG:C basepair; type: biochemical
T1 construct: purchased NEBiolabs (New England Biolabs)
Method: 20% polyacrylamide nucleic acid urea gel electrophoresis was used to resolve the DNA bands at room temperature, 200 v for 50 min. Analysis and quantification of DNA cleavage were done as follows. A background subtraction step was included using the 23mer from the DNA only lane. […] B: Points on the plot were averaged from four different gels. The IC50 value was generated using Prism software version 8.4.3, non-linear fit, [inhibitor] vs. response (three parameters, R2=0.99) averaging points from four different gels. Y error bars represent the standard deviation from the mean. […] A single oxo-guanine: cytosine base pair DNA with a Cy3 fluorescent tag on the 3′ end was used (10 nM). D: The IC50 value was generated using Prism software version 8.4.3, non-linear fit, [inhibitor] vs. response (three parameters, R2=0.98) averaging points from three different gels.
Following pre-incubation occurred for 20 min at 37° C., 2 μL of U:A DNA (500 nM stock) was added to initiate the reaction, total reaction volume of 50 μL/well. Each plate was incubated for 120 min at 37° C. […] Gel data were analyzed using ImageJ software. […] Percent cleavage was calculated by using fluorescence intensity of the cleaved 23-mer DNA strand divided by the sum of the fluorescence bands (23mer+40mer DNA strands)*100. […]

[1] = system: T:G basepairs (TDG, MBD4) repair in MCF-7 cells; experiment: Host-cell reactivation assay, T:G reporter, MCF-7; type: cell-based, human; settings: ATA 2.5 μM
Method: Panel A: 1.25 μM and panel B: 2.5 μM. Reporter expression was calculated for each dose of ATA as described in prior publications and normalized to DMSO treatment.
Removal of uracil in cells was measured using a reporter plasmid containing a dU:dG base pair (referred to as BFP_U), as described previously. In brief, dU is substituted into the transcribed strand at position 191 of the blue fluorescent protein (BFP) gene. When RNA polymerase II incorporates dA opposite dU, transcripts encoding wild type BFP are produced. Upon repair, dU is replaced by dC, leading to production of transcripts encoding a non-fluorescent protein. […] A corresponding cocktail of damage-free plasmids containing pmax BFP (100 ng per transfection), pmax GFP (100 ng per transfection), and carrier plasmid (800 ng per transfection) constituted the “undamaged” cocktail. After normalizing to expression of the pmax,GFP transfection control, expression of BFP_U in the damaged cocktail was normalized to similarly normalized expression of pmax_BFP in the undamaged cocktail. The reciprocal of BFP_U reporter expression was calculated for each experimental condition. […] This creates a premature stop codon, completely abolishing fluorescence. Removal of thymidine followed by insertion of dC opposite dG restores reporter fluorescence.

[2] = target: T2, UDG in human DLD1 colon cancer cell lysate (Homo sapiens, UniProt P13051); experiment: DNA cleavage assay with cell-free protein extracts from DLD1 cells; type: biochemical
T2 construct: IC50 in DLD1 UDG containing cell lysate; other: estimated; effect on 23mer ssDNA generation; DLD1 cell extracts; extracts where UDG was present
Method: A: human cancer lysates were extracted from DLD1 human colon cancer cell lines. […] 20% polyacrylamide nucleic acid urea gel electrophoresis was used to resolve the DNA bands at room temperature, 200 v for 50 min. DNA products were visualized using a Typhoon Trio+Variable Mode Imager (Amersham Biosciences) with excitation and emission wavelengths set to 532 nm and 585 nm respectively, PMT set to 400, and pixel size resolution set to 100 μm. […] Either uracil DNA (U:A bp) or thymidine DNA (T:A bp) was added to initiate the reaction and incubated for additional 20 min at 37° C. 20% polyacrylamide nucleic acid urea gel electrophoresis was used to resolve the DNA bands. Gel data were analyzed using ImageJ software. DNA bands were corrected using a constant background band intensity subtraction step. Then, percent cleavage was calculated by using fluorescence intensity of the cleaved 23-mer DNA strand divided by the sum of the fluorescence bands (23mer+40mer DNA).
The reaction was pre-incubated for 20 min at 37° C. before a fluorescently-labeled TAMRA DNA duplex oligo containing a single U:A bp (final 30 nM) was added to each reaction well with a total reaction volume of 50 μL/well. Plate was further incubated for 20 min at 37° C. 5 μL of a denaturing loading dye (20 mg of bromophenol blue, 9.7 ml of formamide plus 300 μL of 10M NaOH) was added to stop each reaction. DNA products from each reaction were resolved on a 20% denaturing polyacrylamide nucleic acid urea gel (5.3 grams of urea was dissolved in 2.3 mL of 5×TBE, 5 mL of 40% bis-acrylamide 29:1 solution). 5×TBE buffer was prepared by dissolving 54 grams of tris base, 28 grams of boric acid, and 4.5 grams of EDTA in a liter of distilled H2O. Gels were processed at 200V for 60 mins at room temperature, in the dark. […] Gel data were analyzed using ImageJ software. […] Then, percent cleavage was calculated by using fluorescence intensity of the cleaved 23-mer DNA strand divided by the sum of the fluorescence bands (23mer+40mer DNA strands)*100 for untreated and treated conditions. […]

T2 sequence (P13051 45-313 limits assumed): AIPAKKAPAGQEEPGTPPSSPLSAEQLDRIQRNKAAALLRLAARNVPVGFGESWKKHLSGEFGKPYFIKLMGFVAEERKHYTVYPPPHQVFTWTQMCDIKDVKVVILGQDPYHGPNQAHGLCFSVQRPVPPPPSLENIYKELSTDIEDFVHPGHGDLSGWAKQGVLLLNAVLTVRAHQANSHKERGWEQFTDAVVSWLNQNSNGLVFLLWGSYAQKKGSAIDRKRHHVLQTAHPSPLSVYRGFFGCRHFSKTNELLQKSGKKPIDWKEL
T1 sequence (O15527 whole entry): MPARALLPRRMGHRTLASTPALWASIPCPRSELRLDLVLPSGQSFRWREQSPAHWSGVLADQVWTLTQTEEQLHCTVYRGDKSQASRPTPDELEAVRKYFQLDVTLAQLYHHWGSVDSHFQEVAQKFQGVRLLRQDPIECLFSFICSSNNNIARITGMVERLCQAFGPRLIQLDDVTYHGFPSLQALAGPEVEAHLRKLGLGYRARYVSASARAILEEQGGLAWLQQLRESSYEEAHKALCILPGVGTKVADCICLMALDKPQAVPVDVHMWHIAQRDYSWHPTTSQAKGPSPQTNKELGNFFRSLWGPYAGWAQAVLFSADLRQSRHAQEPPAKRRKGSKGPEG

Structure (SMILES): O=C(O)C1=CC(=C(c2ccc(O)c(C(=O)O)c2)c2ccc(O)c(C(=O)O)c2)C=CC1=O [ATA, aurintricarboxylic acid]
- inhibitory effect on purified human OGG1 (human OGG1 protein; OGG1 10 nM, compared with UDG): lesser inhibitory effect
- IC50 (human OGG1 protein; dsDNA with single 8oxoG:C bp, gel-based): 4.5 µM
- inhibition of repair of T:G basepair [1]: not inhibiting
- effect on 23mer ssDNA generation ([2]; 12.5 μM ATA, DLD1 cell extracts): minimal effect
- inhibition of 23mer ssDNA appearance ([2]; 50 μM ATA, extracts where UDG was present): near-complete inhibition; also recorded: completely inhibited
- IC50 ([2]; read-out: IC50 in DLD1 UDG containing cell lysate): ~32.5 µM
